Assays:
[1] = for molar entropy: 101.33 kPa; for Triple point temperature: Adiabatic calorimetry
[2] = Molar enthalpy of transition or fusion; conditions: Adiabatic calorimetry

O=P([O-])([O-])[O-].[Cs+].[Mn+2] [cesium manganese(II) phosphate]
[1]
Conditions	molar entropy [J/K/mol]
5 K, Crystal 3, Vacuum adiabatic calorimetry	0.572
6 K, Crystal 3, Vacuum adiabatic calorimetry	0.9894
6.9 K, Crystal 2, Vacuum adiabatic calorimetry	3.334
6.9 K, Crystal 3, Vacuum adiabatic calorimetry	1.463
7 K, Crystal 2, Vacuum adiabatic calorimetry	3.434
8 K, Crystal 2, Vacuum adiabatic calorimetry	4.099
9 K, Crystal 2, Vacuum adiabatic calorimetry	4.639
10 K, Crystal 2, Vacuum adiabatic calorimetry	5.163
15 K, Crystal 2, Vacuum adiabatic calorimetry	8.007
20 K, Crystal 2, Vacuum adiabatic calorimetry	11.12
25 K, Crystal 2, Vacuum adiabatic calorimetry	14.62
30 K, Crystal 2, Vacuum adiabatic calorimetry	18.46
35 K, Crystal 2, Vacuum adiabatic calorimetry	22.54
40 K, Crystal 2, Vacuum adiabatic calorimetry	26.78
45 K, Crystal 2, Vacuum adiabatic calorimetry	31.05
50 K, Crystal 2, Vacuum adiabatic calorimetry	35.27
60 K, Crystal 2, Vacuum adiabatic calorimetry	43.62
70 K, Crystal 2, Vacuum adiabatic calorimetry	51.79
80 K, Crystal 2, Vacuum adiabatic calorimetry	59.71
90 K, Crystal 2, Vacuum adiabatic calorimetry	67.35
100 K, Crystal 2, Vacuum adiabatic calorimetry	74.73
110 K, Crystal 2, Vacuum adiabatic calorimetry	81.91
120 K, Crystal 2, Vacuum adiabatic calorimetry	88.96
127 K, Crystal 1, Vacuum adiabatic calorimetry	95.03
127 K, Crystal 2, Vacuum adiabatic calorimetry	93.79
130 K, Crystal 1, Vacuum adiabatic calorimetry	97.11
140 K, Crystal 1, Vacuum adiabatic calorimetry	103.68
150 K, Crystal 1, Vacuum adiabatic calorimetry	110.17
160 K, Crystal 1, Vacuum adiabatic calorimetry	116.4
170 K, Crystal 1, Vacuum adiabatic calorimetry	122.56
180 K, Crystal 1, Vacuum adiabatic calorimetry	128.54
190 K, Crystal 1, Vacuum adiabatic calorimetry	134.36
200 K, Crystal 1, Vacuum adiabatic calorimetry	140.02
210 K, Crystal 1, Vacuum adiabatic calorimetry	145.67
220 K, Crystal 1, Vacuum adiabatic calorimetry	151.07
230 K, Crystal 1, Vacuum adiabatic calorimetry	156.4
240 K, Crystal 1, Vacuum adiabatic calorimetry	161.63
250 K, Crystal 1, Vacuum adiabatic calorimetry	166.79
260 K, Crystal 1, Vacuum adiabatic calorimetry	171.86
270 K, Crystal 1, Vacuum adiabatic calorimetry	176.77
280 K, Crystal 1, Vacuum adiabatic calorimetry	181.59
290 K, Crystal 1, Vacuum adiabatic calorimetry	186.41
298.15 K, Crystal 1, Vacuum adiabatic calorimetry	190.24
300 K, Crystal 1, Vacuum adiabatic calorimetry	191.15
310 K, Crystal 1, Vacuum adiabatic calorimetry	195.81
320 K, Crystal 1, Vacuum adiabatic calorimetry	200.46
330 K, Crystal 1, Vacuum adiabatic calorimetry	205.03
340 K, Crystal 1, Vacuum adiabatic calorimetry	209.61
350 K, Crystal 1, Small sample (50 mg) DSC	214.51
360 K, Crystal 1, Small sample (50 mg) DSC	218.67
370 K, Crystal 1, Small sample (50 mg) DSC	222.83
380 K, Crystal 1, Small sample (50 mg) DSC	226.99
390 K, Crystal 1, Small sample (50 mg) DSC	231.14
400 K, Crystal 1, Small sample (50 mg) DSC	235.3
410 K, Crystal 1, Small sample (50 mg) DSC	239.46
420 K, Crystal 1, Small sample (50 mg) DSC	243.61
430 K, Crystal 1, Small sample (50 mg) DSC	247.77
440 K, Crystal 1, Small sample (50 mg) DSC	251.93
450 K, Crystal 1, Small sample (50 mg) DSC	255.25
460 K, Crystal 1, Small sample (50 mg) DSC	259.41
470 K, Crystal 1, Small sample (50 mg) DSC	262.74
480 K, Crystal 1, Small sample (50 mg) DSC	266.06
490 K, Crystal 1, Small sample (50 mg) DSC	270.22
500 K, Crystal 1, Small sample (50 mg) DSC	273.55
510 K, Crystal 1, Small sample (50 mg) DSC	276.87
520 K, Crystal 1, Small sample (50 mg) DSC	280.2
530 K, Crystal 1, Small sample (50 mg) DSC	283.52
540 K, Crystal 1, Small sample (50 mg) DSC	286.85
550 K, Crystal 1, Small sample (50 mg) DSC	290.18
560 K, Crystal 1, Small sample (50 mg) DSC	293.5
570 K, Crystal 1, Small sample (50 mg) DSC	296.83
580 K, Crystal 1, Small sample (50 mg) DSC	300.15
590 K, Crystal 1, Small sample (50 mg) DSC	302.65
600 K, Crystal 1, Small sample (50 mg) DSC	305.97
610 K, Crystal 1, Small sample (50 mg) DSC	309.3
620 K, Crystal 1, Small sample (50 mg) DSC	311.79
630 K, Crystal 1, Small sample (50 mg) DSC	315.12
640 K, Crystal 1, Small sample (50 mg) DSC	317.61
650 K, Crystal 1, Small sample (50 mg) DSC	320.94

Conditions	Molar enthalpy of transition or fusion, [2] [kcal/mol]	Triple point temperature, [1] [K]
Crystal 2	0.038	127
Crystal 3	0.00306	6.9

Reference: the NIST ThermoML archive (doi:10.1016/j.jct.2014.06.012)
